Experimental data reported in patent US20200362174A1, “COMPOUNDS AND METHODS FOR OPTICAL SENSING OF ELECTRICAL ACTIVITY IN BIOLOGICAL SYSTEMS” (UNIVERSITY OF CONNECTICUT, priority 2018, published 2020).
Values joined by “and” are separate entries in the source; they are usually repeats but may differ in a detail not shown here. Equal entries are not always repeated. “Also recorded” adds a separate entry of the source. Structures can show the parent of a compound that is named as a salt.

What was measured:
[1] = voltage sensitivity testing on the voltage clamped hemispherical lipid bilayer (HLB) apparatus
[2] = water solubility / deliverability to membranes (in words); type: physicochemical; conditions: delivery to the membrane

| SMILES | voltage sensitivity / voltage dependence in words [1] | ΔF/F per 100 mV in Dynamic Range (mV) ([1]; dynamic range [−100, 0] mV) | τ-off [1] | τ-on [1] | other results |
| --- | --- | --- | --- | --- | --- |
| CCCCN(CCCC)c1ccc2cc(C=Cc3cc[n+](CCCS(=O)(=O)[O-])cc3)ccc2c1 [Di-4-ANEPPS, 4-(2-(6-(dibutylamino)-2-naphthalenyl)ethenyl)-1-(3-sulfopropyl)pyridinium hydroxide inner salt, reference compound] | approximately linear voltage dependence | – | – | – | voltage sensitivity ([1]; approximately linear over a broad range of applied voltage): 12 %/100 mV |
| CN(CCCCCCCCCCCCNC(=O)CCCCCCCCCCCNC(=O)COCCOCCNC(=O)CCc1c([N+](=O)[O-])cc([N+](=O)[O-])c([N-]c2c([N+](=O)[O-])cc([N+](=O)[O-])cc2[N+](=O)[O-])c1[N+](=O)[O-])c1ccc2cc(/C=C/c3cc[n+](CCOCCOCCO)cc3)ccc2c1 [PY6242] | – | – | – | – | solubility in words [2]: Low solubility |
| CN(CCCCCCCCCCCCNC(=O)CCCCCCCCCCCNC(=O)CCc1c([N+](=O)[O-])cc([N+](=O)[O-])c(Nc2c([N+](=O)[O-])cc([N+](=O)[O-])cc2[N+](=O)[O-])c1[N+](=O)[O-])c1ccc2cc(/C=C/c3cc[n+](CCCCS(=O)(=O)[O-])cc3)ccc2c1 [PY6256] | – | 24% | – | – | ΔF/F per 100 mV in Dynamic Range (mV) ([1]; dynamic range [0, 100] mV): 39% |
| CC[N+](CC)(CC)CCC[n+]1ccc(/C=C/c2ccc3cc(N(C)CCCCCCCCCCCCNC(=O)CCCCCCCCCCCNC(=O)CCc4c([N+](=O)[O-])cc([N+](=O)[O-])c(Nc5c([N+](=O)[O-])cc([N+](=O)[O-])cc5[N+](=O)[O-])c4[N+](=O)[O-])ccc3c2)cc1 [TBFQ 15] | – | – | – | – | ΔF/F per 100 mV ([1]; no dynamic range printed, electrochromic behavior): 8% and 8 ± 3% |
| CC[N+](CC)(CC)CCC[n+]1ccc(/C=C/c2ccc3cc(N(C)CCOCCOCCNC(=O)CCCCCCCCCCCNC(=O)COCCOCCNC(=O)CCc4c([N+](=O)[O-])cc([N+](=O)[O-])c(Nc5c([N+](=O)[O-])cc([N+](=O)[O-])cc5[N+](=O)[O-])c4[N+](=O)[O-])ccc3c2)cc1 [TBFQ 16] | high voltage sensitivity | – | 5 ± 1 ms | 11 ± 2 ms | change in fluorescence/100 mV ([1]; […], dye on the inside, 20 ms voltage steps): 36%; ΔF/F per 100 mV in Dynamic Range (mV) ([1]; dynamic range [−200, −100] mV): 56 ± 13% |
| CC[N+](CC)(CC)CCC[n+]1ccc(/C=C/c2ccc3cc(N(C)CCCCCCCCCCCCNC(=O)CCCCCCCCCCCNC(=O)COCCOCCNC(=O)CCc4c([N+](=O)[O-])cc([N+](=O)[O-])c(Nc5c([N+](=O)[O-])cc([N+](=O)[O-])cc5[N+](=O)[O-])c4[N+](=O)[O-])ccc3c2)cc1 [TBFQ 17] | better sensitivity than TBFQ 16; also recorded: responses in the physiological range that are larger than any previous fast VSDs | 66 ± 15% | 7 ± 2 ms | 12 ± 2 ms | – |
